Source: patent US9675068B2, “Solid form sodium lauryl sulfate (SLS) crawling pest elimination composition” (ECOLAB USA INC., priority 2008, dated 2017)

Test: Ability of SLS forms to go into solution in water
Type: physicochemical
Conditions: at 12% and 18%
Text: In one embodiment, the pesticide composition of the present invention includes a combination of sodium lauryl sulfate (SLS) and water. In particular, the pesticide composition includes a combination of a solid form of sodium lauryl sulfate and water. Suitable component concentrations for a concentrate of the pesticide composition include between about 90% and about 100% sodium lauryl sulfate by weight and balance water, particularly between about 93% and about 100% sodium lauryl sulfate by weight and balance water and more particularly between about 95% and about 100% sodium lauryl sulfate by weight and balance water. Suitable component concentrations for a use solution of the pesticide composition include between about 1% and about 10% sodium lauryl sulfate by weight and balance water and particularly between about 1% and about 6% sodium lauryl sulfate by weight and balance water. At concentrations higher than about 12% by weight sodium lauryl sulfate, solid form sodium lauryl sulfate may not effectively form a solution. In other embodiments, similar intermediate concentrate and use concentrations may also be present in the cleaning compositions of the invention.
The compositions of Examples 1, 2 and 3 are compositions of the present invention using needle form sodium lauryl sulfate (SLS) as the active ingredient in a pesticide composition. […]

CCCCCCCCCCCCOS(=O)(=O)[O-].[Na+] [needle form SLS, sodium lauryl sulfate]
going into solution in water: would not go into solution
